# Source: patent publication US20240218022A1, “ANTI-VISTA MACROCYCLIC PEPTIDES AND COMPOSITIONS” (BRISTOL-MYERS SQUIBB COMPANY, priority 2022, published 2024)
# Read-outs that look alike come from different tables or passages of the source. Starred links: 1 amine or outer side, 2 acyl side, 3 side chain; linkers in the order of their positions; H or OH if unused. Positions of bridges follow the written chain, without caps; N, C: chain ends. Non-standard residues stand in square brackets, D forms with d. Residues, ends and D or L forms follow the SMILES beside them. ξ: configuration not given here. X1 = C=CCOc1ccccc1C[C@H](N[*:1])C(=O)[*:2]; Phe(3-CN) = N#Cc1cccc(C[C@H](N)C(=O)O)c1; Phe(3-Me) = Cc1cccc(C[C@H](N)C(=O)O)c1; γGlu = O=C(O)[C@H](CCC(=O)[*:2])N[*:1]; 2Nal = N[C@@H](Cc1ccc2ccccc2c1)C(=O)O; βAsp = O=C(O)[C@H](CC(=O)[*:2])N[*:1]; NMeIle(3ξ) = CCC(C)[C@H](NC)C(=O)O; Tic = O=C(O)[C@@H]1Cc2ccccc2CN1; Cit = NC(=O)NCCC[C@H](N)C(=O)O; Ahp(2) = CCCCC[C@H](N)C(=O)O; NMeNle = CCCC[C@H](NC)C(=O)O; Tle = CC(C)(C)[C@H](N)C(=O)O; NHexGly = CCCCCCNCC(=O)O; Nle = CCCC[C@H](N)C(=O)O; Orn = NCCC[C@H](N)C(=O)O; Aun = NCCCCCCCCCCC(=O)O; Aze = O=C(O)[C@@H]1CCN1; AEEA = NCCOCCOCC(=O)O
# Molecular target: T1, mouse VISTA (mVISTA) (Mus musculus, UniProt Q9D659)
# T1 construct: expressed in transfected cells; host or cells: Human embryonic kidney 293T cells
# T1 sequence (Q9D659 33-308): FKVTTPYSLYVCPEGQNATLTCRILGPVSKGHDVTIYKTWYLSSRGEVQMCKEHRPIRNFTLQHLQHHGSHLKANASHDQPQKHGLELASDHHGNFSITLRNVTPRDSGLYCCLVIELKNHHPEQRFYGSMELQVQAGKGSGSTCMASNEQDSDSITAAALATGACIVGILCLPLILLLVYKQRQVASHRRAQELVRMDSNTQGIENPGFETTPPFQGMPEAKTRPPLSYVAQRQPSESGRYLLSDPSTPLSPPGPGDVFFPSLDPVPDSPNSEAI
# Test: Cell-Based Binding High-Content Assay For mVISTA (HC CBA mVISTA)
# How it was run: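 Competition of compound with a biotinylated peptide (final 2 nM, 30 min at RT) for binding to mVISTA on 293T cells, run under no-wash or wash (1 h compound preincubation then removal) formats. Readout by Alexa 647–streptavidin imaging on a high-content platform; four-parameter logistic fit gave IC50.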
# [1] = 293T cells expressing mouse VISTA, competition with biotinylated peptide (2 nM), read-out: HC CBA mVISTA IC50
# [2] = cell-based binding high-content assay, mVISTA, the 16th table, read-out: HC CBA mVISTA IC50
# [3] = cell-based binding high-content assay, mVISTA, the 15th table, read-out: HC CBA mVISTA IC50
compound,measurement,setting,value
CCCCCCN1CC(=O)N[C@@H](Cc2ccc(O)cc2)C(=O)N[C@@H](CC(C)C)C(=O)N[C@@H](CC(=O)O)C(=O)N[C@@H](CCCNC(=N)N)C(=O)N[C@@H](CC(C)C)C(=O)N[C@@H](CCCCC)C(=O)N2CCC[C@H]2C(=O)N[C@@H](C(C)C)C(=O)N[C@@H](CO)C(=O)N[C@H](C(=O)NCC(N)=O)CSCC(=O)N[C@@H](Cc2ccccc2)C(=O)N[C@@H](Cc2ccc(O)cc2)C(=O)N[C@@H](CC(=O)O)C1=O [Example 1041] ({CH2CO}-FYD[NHexGly]YLDRL[Ahp(2)]PVSCG-NH2; thioether N-14),IC50,[1],0.0249 µM
CCCCCCN1CC(=O)N[C@@H](Cc2ccc(O)cc2)C(=O)N[C@@H](CCCC)C(=O)N[C@@H](CC(=O)O)C(=O)N[C@@H](CCCNC(=N)N)C(=O)N(C)[C@@H](CCCC)C(=O)N[C@@H](CCCCC)C(=O)N2CCC[C@H]2C(=O)N[C@@H](C(C)C)C(=O)N[C@@H](CC(=O)O)C(=O)N[C@H](C(=O)N[C@@H](CCC(=O)O)C(N)=O)CSCC(=O)N[C@@H](Cc2ccccc2)C(=O)N[C@@H](Cc2ccc(O)cc2)C(=O)N[C@@H](CC(=O)O)C1=O [Example 1078] ({CH2CO}-FYD[NHexGly]Y[Nle]DR[NMeNle][Ahp(2)]PVDCE-NH2; thioether N-14),IC50,"293T cells expressing mouse VISTA, competition with biotinylated peptide (2 nM), read-out: CBA mVISTA IC50",0.0177 µM
CCCCCCN1CC(=O)N[C@@H](Cc2ccc(O)cc2)C(=O)N[C@@H](CCCC)C(=O)N[C@@H](CC(N)=O)C(=O)N[C@@H](CCCNC(=N)N)C(=O)N(C)[C@@H](CCCC)C(=O)N[C@@H](CCCCC)C(=O)N2CC[C@H]2C(=O)N[C@@H](C(C)C)C(=O)N[C@@H](CO)C(=O)N[C@H](C(=O)N[C@@H](CC(=O)NCCOCCOCC(=O)NCCCCCCCCCCC(=O)O)C(=O)O)CSCC(=O)N[C@@H](Cc2ccccc2)C(=O)N[C@@H](Cc2c[nH]c3ccccc23)C(=O)N[C@@H](CC(=O)O)C1=O [Example 2184] ({CH2CO}-FWD[NHexGly]Y[Nle]NR[NMeNle][Ahp(2)][Aze]VSC[βAsp][AEEA][Aun]-OH; thioether N-14),IC50,read-out: HC CBA mVISTA IC50,0.0231 µM
CCCCCCN1CC(=O)N[C@@H](Cc2ccc(O)cc2)C(=O)N[C@@H](CCCC)C(=O)N[C@@H](CC(N)=O)C(=O)N[C@@H](CCCNC(=N)N)C(=O)N2Cc3ccccc3C[C@H]2C(=O)N[C@@H](CCCCC)C(=O)N2CCC[C@H]2C(=O)N[C@@H](C(C)C)C(=O)N[C@@H](CC(=O)O)C(=O)N[C@H](C(=O)NCC(N)=O)CSCC(=O)N[C@@H](Cc2ccc3ccccc3c2)C(=O)N[C@@H](Cc2ccc(O)cc2)C(=O)N[C@@H](CC(=O)O)C1=O [Ex 1307] ({CH2CO}-[2Nal]YD[NHexGly]Y[Nle]NR[Tic][Ahp(2)]PVDCG-NH2; thioether N-14),IC50,[2],0.0114 µM
CCCCCCN1CC(=O)N[C@@H](Cc2ccc(O)cc2)C(=O)N[C@@H](CCCCC)C(=O)N[C@@H](CC(N)=O)C(=O)N[C@@H](CCCNC(=N)N)C(=O)N[C@@H](C)C(=O)N[C@@H](CCCCC)C(=O)N2CCC[C@H]2C(=O)N[C@@H](C(C)C)C(=O)N[C@@H](CO)C(=O)N[C@H](C(=O)NCC(=O)O)CSCC(=O)N[C@@H](Cc2ccccc2)C(=O)N[C@@H](Cc2ccc(O)cc2)C(=O)N[C@@H](CC(=O)O)C1=O [Example 1090] ({CH2CO}-FYD[NHexGly]Y[Ahp(2)]NRA[Ahp(2)]PVSCG-OH; thioether N-14),IC50,[1],0.008 µM
CCCCCCN1CC(=O)N[C@@H](Cc2ccc(O)cc2)C(=O)N[C@@H](CCCC)C(=O)N[C@@H](CC(N)=O)C(=O)N[C@@H](CCCNC(=N)N)C(=O)N(C)[C@@H](CCCC)C(=O)N[C@@H](CCCCC)C(=O)N2CCC[C@H]2C(=O)N[C@@H](C(C)(C)C)C(=O)N[C@@H](CO)C(=O)N[C@H](C(=O)NCC(=O)N[C@@H](CC(=O)NCCOCCOCC(=O)NCCCCCCCCCCC(=O)O)C(=O)O)CSCC(=O)N[C@@H](Cc2ccccc2)C(=O)N[C@@H](Cc2cccc(C)c2)C(=O)N[C@@H](CC(=O)O)C1=O [Example 2327] ({CH2CO}-F[Phe(3-Me)]D[NHexGly]Y[Nle]NR[NMeNle][Ahp(2)]P[Tle]SCG[βAsp][AEEA][Aun]-OH; thioether N-14),IC50,"cell-based binding high-content assay, read-out: HC CBA mVISTA IC50",0.0337 µM
CCCCCCN1CC(=O)N[C@@H](Cc2ccc(O)cc2)C(=O)N[C@@H](CCCC)C(=O)N[C@@H](CC(=O)O)C(=O)N[C@@H](CCCN)C(=O)N[C@@H](CC(C)C)C(=O)N[C@@H](CCCCC)C(=O)N2CCC[C@H]2C(=O)N[C@@H](C(C)C)C(=O)N[C@@H](CC(=O)O)C(=O)N[C@H](C(=O)N[C@@H](CC(=O)O)C(N)=O)CSCC(=O)N[C@@H](Cc2ccc3ccccc3c2)C(=O)N[C@@H](Cc2ccc(O)cc2)C(=O)N[C@@H](CC(=O)O)C1=O [Ex 1268] ({CH2CO}-[2Nal]YD[NHexGly]Y[Nle]D[Orn]L[Ahp(2)]PVDCD-NH2; thioether N-14),IC50,[2],0.0097 µM
CCCCCCN1CC(=O)N[C@@H](Cc2ccc(O)cc2)C(=O)N[C@@H](CCCCC)C(=O)N[C@@H](CC(N)=O)C(=O)N[C@@H](CCCNC(=N)N)C(=O)N[C@@H](Cc2c[nH]c3ccccc23)C(=O)N[C@@H](CCCCC)C(=O)N2CCC[C@H]2C(=O)N[C@@H](C(C)C)C(=O)N[C@@H](CO)C(=O)N[C@H](C(=O)N[C@@H](CCC(=O)NCCCCCCCCCCC(=O)O)C(=O)O)CSCC(=O)N[C@@H](Cc2ccccc2)C(=O)N[C@@H](Cc2ccc(O)cc2)C(=O)N[C@@H](CC(=O)O)C1=O [Example 2129] ({CH2CO}-FYD[NHexGly]Y[Ahp(2)]NRW[Ahp(2)]PVSC[γGlu][Aun]-OH; thioether N-14),IC50,read-out: HC CBA mVISTA IC50,0.0166 µM
CCCCCCN1CC(=O)N[C@@H](Cc2ccc(O)cc2)C(=O)N[C@@H](CCCC)C(=O)N[C@@H](CC(N)=O)C(=O)N[C@@H](CCCNC(N)=O)C(=O)N(C)[C@@H](CCCC)C(=O)N[C@@H](CCCCC)C(=O)N2CCC[C@H]2C(=O)N[C@@H](C(C)C)C(=O)N[C@@H](CC(=O)O)C(=O)N[C@H](C(=O)NCC(=O)O)CSCC(=O)N[C@@H](Cc2ccc3ccccc3c2)C(=O)N[C@@H](Cc2c[nH]c3ccccc23)C(=O)N[C@@H](CC(=O)O)C1=O [compound 1253] ({CH2CO}-[2Nal]WD[NHexGly]Y[Nle]N[Cit][NMeNle][Ahp(2)]PVDCG-OH; thioether N-14),IC50,[3],0.0069 µM
C=CCOc1ccccc1C[C@@H]1NC(=O)[C@H](Cc2ccccc2)NC(=O)CSC[C@@H](C(=O)NCC(N)=O)NC(=O)[C@H](CO)NC(=O)[C@H](C(C)(C)C)NC(=O)[C@@H]2CCCN2C(=O)[C@H](CCCCC)NC(=O)[C@H](CCCC)N(C)C(=O)[C@H](CCCNC(=N)N)NC(=O)[C@H](CC(N)=O)NC(=O)[C@H](CC(C)C)NC(=O)[C@H](Cc2ccc(O)cc2)NC(=O)CN(CCCCCC)C(=O)[C@H](CC(=O)O)NC1=O [compound 1338] ({CH2CO}-F[X1]D[NHexGly]YLNR[NMeNle][Ahp(2)]P[Tle]SCG-NH2; thioether N-14),IC50,read-out: HC CBA mVISTA IC50,0.0346 µM
CCCCCCN1CC(=O)N[C@@H](Cc2ccc(O)cc2)C(=O)N[C@@H](CC(C)C)C(=O)NCC(=O)N[C@@H](CCCNC(=N)N)C(=O)N[C@@H](CC(N)=O)C(=O)N[C@@H](CCCCC)C(=O)N2CCC[C@H]2C(=O)N[C@@H](C(C)C)C(=O)N[C@@H](CO)C(=O)N[C@H](C(=O)NCC(N)=O)CSCC(=O)N[C@@H](Cc2ccc3ccccc3c2)C(=O)N[C@@H](Cc2ccc(O)cc2)C(=O)N[C@@H](CC(=O)O)C1=O [Ex 1295] ({CH2CO}-[2Nal]YD[NHexGly]YLGRN[Ahp(2)]PVSCG-NH2; thioether N-14),IC50,[2],0.0314 µM
CCCCCCN1CC(=O)N[C@@H](Cc2ccc(O)cc2)C(=O)N[C@@H](CCCC)C(=O)N[C@@H](CC(N)=O)C(=O)N[C@@H](CCCNC(=N)N)C(=O)N(C)[C@@H](C(C)CC)C(=O)N[C@@H](CCCCC)C(=O)N2CCC[C@H]2C(=O)N[C@@H](C(C)C)C(=O)N[C@@H](CC(=O)O)C(=O)N[C@H](C(=O)NCC(=O)O)CSCC(=O)N[C@@H](Cc2ccc3ccccc3c2)C(=O)N[C@@H](Cc2c[nH]c3ccccc23)C(=O)N[C@@H](CC(=O)O)C1=O (some centres unmarked) [compound 1237] ({CH2CO}-[2Nal]WD[NHexGly]Y[Nle]NR[NMeIle(3ξ)][Ahp(2)]PVDCG-OH; thioether N-14),IC50,[3],0.0091 µM
CCCCCCN1CC(=O)N[C@@H](Cc2ccc(O)cc2)C(=O)N[C@@H](CC(C)C)C(=O)N[C@@H](CC(N)=O)C(=O)N[C@@H](CCCNC(=N)N)C(=O)N(C)[C@@H](CCCC)C(=O)N[C@@H](CCCCC)C(=O)N2CCC[C@H]2C(=O)N[C@@H](C(C)(C)C)C(=O)N[C@@H](CO)C(=O)N[C@H](C(=O)NCC(N)=O)CSCC(=O)N[C@@H](Cc2ccccc2)C(=O)N[C@@H](Cc2cccc(C#N)c2)C(=O)N[C@@H](CC(=O)O)C1=O [compound 1340] ({CH2CO}-F[Phe(3-CN)]D[NHexGly]YLNR[NMeNle][Ahp(2)]P[Tle]SCG-NH2; thioether N-14),IC50,read-out: HC CBA mVISTA IC50,0.0368 µM
CCCCCCN1CC(=O)N[C@@H](Cc2ccc(O)cc2)C(=O)N[C@@H](CCCCN)C(=O)N[C@@H](CC(N)=O)C(=O)N[C@@H](CCCN)C(=O)N(C)[C@@H](CCCC)C(=O)N[C@@H](CCCCC)C(=O)N2CCC[C@H]2C(=O)N[C@@H](C(C)(C)C)C(=O)N[C@@H](CC(=O)O)C(=O)N[C@H](C(=O)N[C@@H](CCC(=O)NCCCCCCCCCCC(=O)O)C(=O)O)CSCC(=O)N[C@@H](Cc2ccccc2)C(=O)N[C@@H](Cc2ccc(O)cc2)C(=O)N[C@@H](CC(=O)O)C1=O [Example 2140] ({CH2CO}-FYD[NHexGly]YKN[Orn][NMeNle][Ahp(2)]P[Tle]DC[γGlu][Aun]-OH; thioether N-14),IC50,read-out: HC CBA mVISTA IC50,0.0419 µM
